Data on three compounds can be found in US20080026447A1, “Assay for determining factor viia inhibitor concentration in plasma samples” (Bristol-Myers Squibb Company, priority 2006, published 2008).

The structures appear in SMILES notation. Like-named read-outs stand apart in the source and are kept apart here.

Data set [1] concerns the target T1, factor VIIa (Homo sapiens, UniProt P08709).
T1 construct: proteolytic cleavage of factor X to factor Xa, factor IX to factor IXa and additional factor VII to factor VIIa
Description: Factor VIIa substrate hydrolysis (amidolytic activity) in factor X deficient plasma. The data set is classed as biochemical. As to conditions: 1 μM inhibitor, 85% factor X deficient plasma, 0.5 nM factor VIIa, D-Ile-Pro-Arg-AFC, FIG. 2. How it is done:
The assay was carried out in a fluorescence plate reader at room temperature. factor VIIa substrate hydrolysis (amidolytic activity on the substrate) was monitored for 30 minutes at an excitation wavelength of 400 nm and an emission wavelength of 535 nm. […] Such interference is primarily due to hydrolysis of the relatively nonspecific peptide substrate by downstream proteases such as factor Xa and thrombin.

Data set [2] in a line: Binding of factor VIIa inhibitor to plasma proteins (shift in IC50, buffer vs plasma). The data set is classed as in vitro ADME. Particulars: pH 7.5, probe D-Ile-Pro-Arg-AFC (fluorogenic factor VIIa substrate); factor X deficient human plasma; 1-IC50 in buffer/IC50 in plasma; read-out: Protein binding (converted). An excerpt:
Some embodiments of the present invention provide methods for determining the plasma protein binding affinity of a factor VIIa inhibitor for other plasma proteins. Factor VIIa inhibitors having low plasma protein binding affinity for plasma proteins other than factor VIIa are preferred because more unbound factor VIIa inhibitor is available to bind and inhibit factor VIIa. The term “low protein binding factor VIIa inhibitor” as used herein means, a factor VIIa inhibitor that decreases the activity of factor VIIa in the presence or absence of other plasma proteins. […] The fraction of inhibitor bound to plasma protein is calculated by 1-IC50 in buffer/IC50 in plasma.
Protein binding of the inhibitor 2-(1-aminoisoquinolin-6-ylamino)-2-(3-ethoxy-4-isopropoxyphenyl)-N-(4-hydroxyphenylsulfonyl)acetamide was determined by measuring factor VIIa inhibition by the test inhibitor in buffer and then in factor X deficient human plasma. […] The assay was carried out in a fluorescence plate reader at room temperature at an excitation wavelength of 400 nm and an emission wavelength of 535 nm. The fraction of the inhibitor bound to plasma protein was calculated according to the following formula: 1-IC50 in buffer/IC50 in plasma. […] Protein binding of 2-(1-aminoisoquinolin-6-ylamino)-2-(3-ethoxy-4-isopropoxyphenyl)-N-(4-hydroxyphenylsulfonyl)acetamide was determined to be 99.2%.

Data set [3] deals with T1, factor VIIa. The data set can be described thus: Factor VIIa inhibition in buffer and in factor X deficient human plasma. It counts as biochemical. Particulars: 2.5 nM factor VIIa, FIG. 5. As for the experimental part:
Protein binding of the inhibitor 2-(1-aminoisoquinolin-6-ylamino)-2-(3-ethoxy-4-isopropoxyphenyl)-N-(4-hydroxyphenylsulfonyl)acetamide was determined by measuring factor VIIa inhibition by the test inhibitor in buffer and then in factor X deficient human plasma. […] In FIG. 5, one set of samples contained 2.5 nM factor VIIa, 28 nM soluble tissue factor, 10 mM CaCl2 100 nM D-Ile-Pro-Arg-AFC and varying concentrations of factor VIIa inhibitor 2-(1-aminoisoquinolin-6-ylamino)-2-(3-ethoxy-4-isopropoxyphenyl)-N-(4-hydroxyphenylsulfonyl)acetamide (Compound B). The second sample set was identical to the first set with the addition of 90% factor X deficient plasma. All samples were diluted in 50 mM HEPES pH 7.5, 150 mM NaCl, 0.1% polyethyleneglycol 8000 and 0.1% bovine serum albumin. The assay was carried out in a fluorescence plate reader at room temperature at an excitation wavelength of 400 nm and an emission wavelength of 535 nm. The fraction of the inhibitor bound to plasma protein was calculated according to the following formula: 1-IC50 in buffer/IC50 in plasma. […] Protein binding of 2-(1-aminoisoquinolin-6-ylamino)-2-(3-ethoxy-4-isopropoxyphenyl)-N-(4-hydroxyphenylsulfonyl)acetamide was determined to be 99.2%.

A short description of data set [4]: Factor VIIa inhibitor concentration in plasma samples from dosed rabbits (functional assay). The data set is classed as in vivo. Particulars: sample B6, plasma from dosed rabbit; IC50 of standard curve × plasma dilution factor giving 50% inhibition. As for the experimental part: Plasma was prepared from tested blood samples drawn from rabbits dosed with (R)-N-(5-acetamido-2-(ethylsulfonyl)benzyl)-2-(1-aminoisoquinolin-6-ylamino)-2-(3,4-dimethoxyphenyl)acetamide (Compound C) into buffered citrate. The samples were diluted and combined with tissue factor, factor VIIa, Ca^++, factor Xa inhibitor 2-(3-Aminomethyl-phenyl)-5-trifluoromethyl-2H-pyrazole-3-carboxylic acid (3-fluoro-2′-methanesulfonyl-biphenyl-4-yl)-amide and fluorogenic factor VIIa substrate D-Ile-Pro-Arg-AFC. The inhibitory activity of the tested sample was measured by monitoring the fluorescence of the D-Ile-Pro-Arg-AFC product and comparing the activity to standard curve constructed with plasma from an undosed rabbit spiked with known concentrations of the (R)-N-(5-acetamido-2-(ethylsulfonyl)benzyl)-2-(1-aminoisoquinolin-6-ylamino)-2-(3,4-dimethoxyphenyl)acetamide. […] The assay was carried out in a fluorescent plate reader at room temperature at an excitation wavelength of 400 nm and an emission wavelength of 535 nm. […] IC50 of the standard curve was calculated using floating top and bottom to account for the background signal not originating from factor VIIa activity. […] The concentration of (R)-N-(5-acetamido-2-(ethylsulfonyl)benzyl)-2-(1-aminoisoquinolin-6-ylamino)-2-(3,4-dimethoxyphenyl)acetamide present in sample B6 was calculated to be 338.5 nM. […]

T1 sequence (P08709 61-212 limits assumed): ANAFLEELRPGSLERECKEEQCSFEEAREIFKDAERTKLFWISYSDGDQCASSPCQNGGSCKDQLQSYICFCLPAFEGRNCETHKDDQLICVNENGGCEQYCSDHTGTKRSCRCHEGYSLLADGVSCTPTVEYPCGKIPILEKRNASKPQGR
T1 sequence (P08709 213-466 limits assumed): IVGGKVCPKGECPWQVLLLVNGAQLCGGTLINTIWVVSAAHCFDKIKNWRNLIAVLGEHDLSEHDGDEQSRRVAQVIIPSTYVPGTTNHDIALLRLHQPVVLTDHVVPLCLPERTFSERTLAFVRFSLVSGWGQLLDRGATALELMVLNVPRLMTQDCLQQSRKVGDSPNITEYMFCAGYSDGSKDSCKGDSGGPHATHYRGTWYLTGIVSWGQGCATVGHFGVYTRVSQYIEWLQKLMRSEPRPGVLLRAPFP
T1 sequence (P13726 with tags, fused parts or gaps partner limits assumed): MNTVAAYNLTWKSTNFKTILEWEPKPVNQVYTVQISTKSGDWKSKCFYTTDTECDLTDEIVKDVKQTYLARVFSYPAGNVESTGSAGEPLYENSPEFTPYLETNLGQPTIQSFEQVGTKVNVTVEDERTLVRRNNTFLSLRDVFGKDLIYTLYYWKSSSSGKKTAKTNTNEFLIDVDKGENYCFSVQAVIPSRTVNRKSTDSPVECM

`COc1cc([C@@H]2Nc3ccc(C(=N)N)cc3[C@H]3c4ccccc4C[C@H]32)c(-c2ccc(C(=O)O)cc2)cc1O` [2′-((6R,6aR,11bR)-2-carbamimidoyl-6,6a,7,11b-tetrahydro-5H-indeno[2,1-c]quinolin-6-yl)-5′-hydroxy-4′-methoxybiphenyl-4-carboxylic acid]: at factor VIIa [1], the “inhibition of amidolytic activity in factor X deficient plasma” value is on record as “most of it is inhibited”.

Consider `CCOc1cc(C(Nc2ccc3c(N)nccc3c2)C(=O)NS(=O)(=O)c2ccc(O)cc2)ccc1OC(C)C` (centres unmarked) [Compound B, 2-(1-aminoisoquinolin-6-ylamino)-2-(3-ethoxy-4-isopropoxyphenyl)-N-(4-hydroxyphenylsulfonyl)acetamide], for which the fraction unbound in data set [2] is 0.008. Further, the 50% inhibitory concentration (IC50) was determined as 3300 nM on factor VIIa [3] (90% factor X deficient plasma, read-out: IC50 in plasma) and 26 nM at factor VIIa [3] (buffer without plasma, read-out: IC50 in buffer).

On to `CCS(=O)(=O)c1ccc(NC(C)=O)cc1CNC(=O)[C@H](Nc1ccc2c(N)nccc2c1)c1ccc(OC)c(OC)c1` [Compound C, (R)-N-(5-acetamido-2-(ethylsulfonyl)benzyl)-2-(1-aminoisoquinolin-6-ylamino)-2-(3,4-dimethoxyphenyl)acetamide], for which the “concentration present in plasma sample” value in data set [4] stood at 338.5 nM.

As usually defined, the IC50 is the concentration that inhibits the measured activity by half.
